The values below come from patent publication US10016469B2, “Composition comprising antifungal agents for treating vulvovaginitis and vaginosis” (Two Lines Co., Ltd., priority 2015, dated 2018).

Common to all, as to test: Antibiotic disk diffusion assay
The subject of test [1] is S. denitrificans YH1. The class given is cell-based. The conditions noted are these: S. denitrificans YH1, MRS agar. The procedure: (§1) To screen antibiotics to which Gardnerella vaginalis (G. vaginalis) is sensitive, and are resistant to probiotics, antibiotics were tested using a disk diffusion assay. Columbia agar containing a 5% human red blood cell solution was used as a media for Gardnerella vaginalis (G. vaginalis, ATCC 14018) and a MRS agar was used as a media for the strains of the present invention ([…]1 and L. crispatus YH2). As the antibiotic disk, a product manufactured by OXIOD was used.

The test system of test [2] is G. vaginalis, standard microorganism (ATCC 14018). The test is classed as cell-based, Gardnerella vaginalis. The conditions noted are these: G. vaginalis ATCC 14018, Columbia agar with 5% human red blood cell solution. Here is the method: To screen antibiotics to which Gardnerella vaginalis (G. vaginalis) is sensitive, and are resistant to probiotics, antibiotics were tested using a disk diffusion assay.
Columbia agar containing a 5% human red blood cell solution was used as a media for Gardnerella vaginalis (G. vaginalis, ATCC 14018) and a MRS agar was used as a media for the strains of the present invention (S. denitnficans YH1 and L. crispatus YH2). As the antibiotic disk, a product manufactured by OXIOD was used.
As described above, augmentin, metronidazole, and clindamycin were applied to a wild-type Gardnerella vaginalis (G. vaginalis) strain obtained from 33 patients suffering from bacterial vaginosis and a standard microorganism (ATCC 14018) and subjected to a test using a disk diffusion assay.

The subject of test [3] is L. crispatus YH2. The class given is cell-based, Lactobacillus crispatus. To be noted: L. crispatus YH2, MRS agar. Here is the method: as §1

For `C[C@@H](O)[C@H]1C(=O)N2C(C(=O)O)=C(SCCN=CN)C[C@H]12` [Imipenem], the figures for the “diameter of inhibition zone” value in test [1], in test [2] and in test [3] were 30 mm, 40 mm and 25 mm, respectively.

For the molecule `Cc1onc(-c2ccccc2)c1C(=O)N[C@@H]1C(=O)N2[C@@H]1SC(C)(C)[C@@H]2C(=O)O` [Oxacillin], the “diameter of inhibition zone” value in test [1], in test [2] and in test [3] was 0 mm in each case.

`CC1(C)S[C@@H]2[C@H](NC(=O)Cc3ccccc3)C(=O)N2[C@H]1C(=O)O` [Penicillin G]: the “diameter of inhibition zone” value in test [1] was determined as 0 mm; in test [2], 10 mm; in test [3], 0 mm.

`CN[C@H](CC(C)C)C(=O)N[C@H]1C(=O)N[C@@H](CC(N)=O)C(=O)N[C@H]2C(=O)N[C@H]3C(=O)N[C@H](C(=O)N[C@H](C(=O)O)c4cc(O)cc(O)c4-c4cc3ccc4O)[C@H](O)c3ccc(c(Cl)c3)Oc3cc2cc(c3O[C@@H]2O[C@H](CO)[C@@H](O)[C@H](O)[C@H]2O[C@H]2C[C@](C)(N)[C@H](O)[C@H](C)O2)Oc2ccc(cc2Cl)[C@H]1O` [Vancomycin]: the figures for the “diameter of inhibition zone” value in test [1], in test [2] and in test [3] were 35 mm, 40 mm and 35 mm, respectively.

Consider Gentamicin, for which the “diameter of inhibition zone” value in test [1], in test [2] and in test [3] was 0 mm in each case.

Take Trimethoprim sulfamethoxazole: the “diameter of inhibition zone” value in test [1], in test [2] and in test [3] was 0 mm each time.
